Source: the Kinase Knowledgebase extract (Sharma et al. 2016)

These molecules were tested against MAPK14 (human) (UniProt Q16539) (assay: LPS Induced TNF-alpha Production Inhibition (THP1 Cells)). Settings: not given.
Sequence of MAPK14 (human) (Q16539 whole entry, looked up): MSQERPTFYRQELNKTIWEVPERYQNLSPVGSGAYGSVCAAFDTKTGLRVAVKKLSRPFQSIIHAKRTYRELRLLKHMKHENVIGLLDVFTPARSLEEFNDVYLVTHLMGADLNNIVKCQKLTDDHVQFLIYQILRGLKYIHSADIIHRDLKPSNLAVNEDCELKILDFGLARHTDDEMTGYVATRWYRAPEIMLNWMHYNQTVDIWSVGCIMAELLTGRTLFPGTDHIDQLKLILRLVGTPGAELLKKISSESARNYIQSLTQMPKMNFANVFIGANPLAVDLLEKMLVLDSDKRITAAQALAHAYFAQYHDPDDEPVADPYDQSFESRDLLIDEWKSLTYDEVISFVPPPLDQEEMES

With `OCCNc1cc(-c2[nH]c3nccnc3c2-c2ccc(F)cc2)ccn1` as the molecule, how does the IC50 read?
Its IC50 is 0.241 µM.

Which IC50 does the source give for `Fc1ccc(-c2c(-c3ccncc3)n(CCN3CCCCC3)c3cccnc23)cc1` here?
Its IC50 is 0.0003 µM.

`COn1c(-c2ccncc2)c(-c2ccc(F)cc2)c2ncccc21` was tested. Which IC50 did it give?
The IC50 was 0.00046 µM.

Which IC50 does the source give for `N#CCCCn1c(-c2ccncc2)c(-c2ccc(F)cc2)c2nccnc21` here?
The IC50 was 8.83 µM.

`Fc1ccc(-c2c(-c3ccncc3)[nH]c3nccnc23)cc1` was tested. Which IC50 did it give?
Its IC50 is 1.1 µM.

For `Fc1ccc(-c2c(-c3ccncc3)n(OCCN3CCCC3)c3cccnc23)cc1`, which IC50 is on record?
Its IC50 is 0.00012 µM.

These molecules were tested on MAPK14 (Balb/c mice) (assay: LPS Induced TNF-alpha Prodcution Inhibition (BALB/c Mice)). Settings: dose or concentration not given here.

How did the inhibition turn out when `Fc1ccc(-c2c(-c3ccncc3)n(OCCN3CCOCC3)c3cccnc23)cc1` was run?
The inhibition was 56%.

`COn1c(-c2ccncc2)c(-c2ccc(F)cc2)c2ncccc21` was tested. Which inhibition did it give?
Its inhibition is 75%.

For `Fc1ccc(-c2c(-c3ccncc3)[nH]c3cccnc23)cc1`, which inhibition is on record?
The inhibition was 68%.

With `Fc1ccc(-c2c(-c3ccncc3)oc3cccnc23)cc1` as the molecule, how does the inhibition read?
The inhibition was 86%.
